From article PMC10762035, “Molecular basis of human trace amine-associated receptor 1 activation” (Nature Communications, 2024)
Substitutions are numbered along the chain they refer to. Several values for one entry are separate records, joined by “and”; a condition that tells them apart may be missing. Equal values may be shown once. Read-outs that look alike come from different tables or passages of the source.

Columns and labels:
Type in all cases: cell-based
hTA1 R83H = target: T1, hTA1 R83H (Homo sapiens, UniProt Q96RJ0, R83H); assay: GloSensor cAMP accumulation assay, R83H mutant;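 also: cells transiently co-expressing hTA1 and a cAMP GloSensor, luminescence read 30 min after agonist addition at room temperature, concentration–response fitted by non-linear regression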
T1 construct: expressed in transfected cells; host or cells: HEK293T
T1 sequence (Q96RJ0 1-339 R83H): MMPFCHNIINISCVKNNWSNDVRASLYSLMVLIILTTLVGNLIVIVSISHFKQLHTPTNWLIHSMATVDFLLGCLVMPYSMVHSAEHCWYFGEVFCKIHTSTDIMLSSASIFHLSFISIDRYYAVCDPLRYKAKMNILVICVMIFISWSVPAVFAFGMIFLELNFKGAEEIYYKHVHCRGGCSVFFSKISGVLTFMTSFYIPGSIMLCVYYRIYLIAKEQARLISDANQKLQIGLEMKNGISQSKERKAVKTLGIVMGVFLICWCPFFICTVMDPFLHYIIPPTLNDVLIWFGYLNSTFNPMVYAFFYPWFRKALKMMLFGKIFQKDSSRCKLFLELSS

hTA1 T271N = target: T2, hTA1 T271N (Homo sapiens, UniProt Q96RJ0, T271N); assay: GloSensor cAMP accumulation assay, T271N mutant
T2 construct: expressed in transfected cells; host or cells: HEK293T
T2 sequence (Q96RJ0 1-339 T271N): T1 sequence (Q96RJ0 1-339 R83H) with H83R, T271N

hTA1 C178S = target: T3, hTA1 C178S (Homo sapiens, UniProt Q96RJ0, C178S); assay: GloSensor cAMP accumulation assay, C178S mutant; details: for C178S - Normalized Luminescence Counts (N=2): log[Compound], single replicates
T3 construct: expressed in transfected cells; host or cells: HEK293T
T3 sequence (Q96RJ0 1-339 C178S): T1 sequence (Q96RJ0 1-339 R83H) with H83R, C178S

hTA1 C88/178S = target: T4, hTA1 C88/178S (Homo sapiens, UniProt Q96RJ0, C178S/C88S); assay: GloSensor cAMP accumulation assay, C88S/C178S double mutant; details: for Normalized Luminescence Counts (N=2): log[Compound], single replicate values
T4 construct: expressed in transfected cells; host or cells: HEK293T
T4 sequence (Q96RJ0 1-339 C88S/C178S): T1 sequence (Q96RJ0 1-339 R83H) with H83R, C88S, C178S

[1] = C88S, C178S, each row is one independent experiment, 3 replicates

With `CCC(CC1COC(N)=N1)c1ccccc1` (stereo not shown) [Ro5256390] the EC50 (hTA1 R83H; EC50, R83H, n=2) was 5.19 nM, the “ΔEmax values (each mutant value - WT average)” value (hTA1 R83H; R83H mutant minus WT average) was -44.6015 and the “ΔpEC50 values (each mutant value - WT average)” value (hTA1 R83H; R83H mutant minus WT average) was -0.01027 and 0.0342. The “Emax values, Mean” value (hTA1 R83H; R83H mutant, β-PEA = 100, each line an independent experiment, 3 replicates) was 58.7027 and 38.4174, the EC50 (hTA1 R83H; pEC50 values (Mean), R83H mutant, each line an independent experiment, 3 replicates) was 5.46 nM and 4.93 nM and the Emax (hTA1 R83H; read-out: Span ± SEM (Emax normalized to β-PEA), R83H, n=2) was 48.6 ± 10.1%. The EC50 (hTA1 T271N; EC50, T271N, n=2) was 12.6 nM, the “ΔpEC50 values (each mutant value - WT average), Mean” value (“ΔpEC50 values … Mean” below) (hTA1 T271N; T271N mutant minus WT average, Figure 5B) was -0.2524 and -0.4929 and the “Emax values, Mean” value (hTA1 T271N; T271N mutant, Figure 5B, β-PEA = 100, each row one independent experiment (3 replicates)) was 121.264 and 99.7038. For the same compound, the EC50 (hTA1 T271N; pEC50 values, Mean, T271N mutant, Figure 5B, each row one independent experiment (3 replicates)) was 9.54 nM and 16.6 nM, the Emax (hTA1 T271N; read-out: Span ± SEM (Emax normalized to β-PEA), T271N, n=2) was 110% and the “ΔpEC50 values … Mean” value (hTA1 C178S; C178S, each row one experiment (N=2), 3 replicates) was -0.5545 and -0.2923. The Emax (hTA1 C178S; C178S, relative to β-PEA) was 120%, the “Emax values, Mean” value (hTA1 C178S; C178S, β-PEA = 100, each row one experiment (N=2), 3 replicates) was 104.356 and 134.792 and the EC50 (hTA1 C178S; EC50, C178S, n=2) was 14.1 nM. The “C178S - Normalized Luminescence Counts (N=2)” value (hTA1 C178S; M = -5) was 102.446 and 115.063 and 100.063 and 98.247 and 134.327 and 139.921, the “C178S - Normalized Luminescence Counts (N=2)” value (hTA1 C178S; M = -5.522) was 112.587 and 101.839 and 98.2408 and 148.866 and 141.178 and 145.097 and the “C178S - Normalized Luminescence Counts (N=2)” value (hTA1 C178S; M = -6) was 99.8763 and 105.203 and 90.1566 and 163.316 and 171.125 and 157.632. The “C178S - Normalized Luminescence Counts (N=2)” value (hTA1 C178S; M = -6.522) was 110.577 and 98.2408 and 97.8202 and 140.041 and 136.93 and 126.219, the “C178S - Normalized Luminescence Counts (N=2)” value (hTA1 C178S; M = -7) was 89.6425 and 86.2313 and 90.5771 and 109.526 and 118.68 and 112.368 and the “C178S - Normalized Luminescence Counts (N=2)” value (hTA1 C178S; M = -7.522) was 61.5581 and 68.0535 and 67.1189 and 100.042 and 97.9478 and 96.7511. For the same compound, the “C178S - Normalized Luminescence Counts (N=2)” value (hTA1 C178S; M = -8) was 35.9971 and 29.5951 and 33.2867 and 60.9705 and 68.8087 and 90.3489, the “C178S - Normalized Luminescence Counts (N=2)” value (hTA1 C178S; M = -8.522) was 17.2585 and 16.3239 and 17.6791 and 41.704 and 41.2253 and 41.0458 and the “C178S - Normalized Luminescence Counts (N=2)” value (hTA1 C178S; M = -9) was 9.361 and 5.296 and 6.978 and 20.7921 and 25.9976 and 27.6132. The “C178S - Normalized Luminescence Counts (N=2)” value (hTA1 C178S; M = -9.522) was 1.184 and 0.9499 and 2.959 and 8.825 and 6.193 and 11.0392, the “C178S - Normalized Luminescence Counts (N=2)” value (hTA1 C178S; M = -10) was 1.651 and 2.539 and 1.885 and 5.9234 and 4.278 and 6.671 and the “C178S - Normalized Luminescence Counts (N=2)” value (hTA1 C178S; M = -10.522) was 0.4359 and -0.07812 and -0.265 and 1.256 and 0.02978 and 1.197. The “C178S - Normalized Luminescence Counts (N=2)” value (hTA1 C178S; M = -11) was 0.9499 and 0.763 and 0.2957 and 5.146 and 2.064 and 5.0259, the “C178S - Normalized Luminescence Counts (N=2)” value (hTA1 C178S; M = -11.522) was -0.4987 and 1.2303 and -0.03139 and 3.65 and 2.333 and 2.932 and the “C178S - Normalized Luminescence Counts (N=2)” value (hTA1 C178S; M = -12) was 0.2023 and 1.184 and 0.4359 and 4.098 and 3.021 and 6.312. The “C178S - Normalized Luminescence Counts (N=2)” value (hTA1 C178S; M = -12.522) was 0.2023 and -0.1249 and -0.03139 and 3.321 and 2.124 and 7.958, the EC50 (hTA1 C178S; pEC50 values, Mean, C178S, each row one experiment (N=2), 3 replicates) was 19.1 nM and 10.5 nM and the Emax (hTA1 C178S; read-out: Span ± SEM (Emax normalized to β-PEA), C178S, n=2) was 120%. For the same compound, the “ΔEmax values (each mutant value - WT average), Mean” value (hTA1 C88/178S; [1]) was 2.588 and 13.0349, the “ΔpEC50 values … Mean” value (hTA1 C88/178S; [1]) was -0.3451 and 0.337 and the “Normalized Luminescence Counts (N=2)” value (hTA1 C88/178S; C88S, C178S, M = -5) was 108.214 and 110.475 and 102.673 and 112.685 and 109.211 and 118.575. The “Normalized Luminescence Counts (N=2)” value (hTA1 C88/178S; C88S, C178S, M = -5.522) was 107.14 and 118.277 and 96.6804 and 111.477 and 99.2423 and 137.304, the “Normalized Luminescence Counts (N=2)” value (hTA1 C88/178S; C88S, C178S, M = -6) was 102.956 and 112.171 and 95.8888 and 120.841 and 90.9352 and 145.46 and the “Normalized Luminescence Counts (N=2)” value (hTA1 C88/178S; C88S, C178S, M = -6.522) was 97.5284 and 100.073 and 116.864 and 116.461 and 100.602 and 130.658. The “Normalized Luminescence Counts (N=2)” value (hTA1 C88/178S; C88S, C178S, M = -7) was 99.1114 and 95.1539 and 92.6097 and 130.507 and 95.1643 and 125.523, the “Normalized Luminescence Counts (N=2)” value (hTA1 C88/178S; C88S, C178S, M = -7.522) was 77.3448 and 82.7723 and 86.5603 and 108.607 and 127.336 and 130.961 and the “Normalized Luminescence Counts (N=2)” value (hTA1 C88/178S; C88S, C178S, M = -8) was 51.564 and 41.5569 and 41.3873 and 109.966 and 74.6229 and 107.852. For the same compound, the “Normalized Luminescence Counts (N=2)” value (hTA1 C88/178S; C88S, C178S, M = -8.522) was 25.1047 and 27.2531 and 18.3768 and 63.5971 and 68.4303 and 61.3315, the “Normalized Luminescence Counts (N=2)” value (hTA1 C88/178S; C88S, C178S, M = -9) was 12.0447 and 13.3451 and 14.08 and 33.9934 and 34.4465 and 30.5195 and the “Normalized Luminescence Counts (N=2)” value (hTA1 C88/178S; C88S, C178S, M = -9.522) was 6.334 and 4.865 and 5.4299 and 15.8687 and 15.4156 and 17.077. For the same compound, the “Normalized Luminescence Counts (N=2)” value (hTA1 C88/178S; C88S, C178S, M = -10) was 1.925 and 5.769 and 1.359 and 9.978 and 13.6031 and 14.0562, the “Normalized Luminescence Counts (N=2)” value (hTA1 C88/178S; C88S, C178S, M = -10.522) was 1.303 and 1.416 and 1.359 and 5.9 and 3.6345 and 7.562 and the “Normalized Luminescence Counts (N=2)” value (hTA1 C88/178S; C88S, C178S, M = -11) was 1.02 and 0.285 and 0.3416 and 4.3897 and 3.181 and 3.937. For the same compound, the “Normalized Luminescence Counts (N=2)” value (hTA1 C88/178S; C88S, C178S, M = -11.522) was 1.416 and 0.4547 and 1.585 and 3.03 and 0.6137 and 2.275, the “Normalized Luminescence Counts (N=2)” value (hTA1 C88/178S; C88S, C178S, M = -12) was 0.0589 and 1.303 and -0.3369 and 0.9158 and 0.009559 and 0.7648 and the “Normalized Luminescence Counts (N=2)” value (hTA1 C88/178S; C88S, C178S, M = -12.522) was -0.05417 and 0.8504 and 0.7373 and 2.577 and 0.4627 and -0.2925. For the same compound, the “Emax values, Mean” value (hTA1 C88/178S; C88S, C178S, normalized (β-PEA = 100), each row is one independent experiment, 3 replicates) was 105.892 and 116.339, the EC50 (hTA1 C88/178S; EC50, C88/178S, n=2) was 5.38 nM and the EC50 (hTA1 C88/178S; pEC50 values, Mean, C88S, C178S, each row is one independent experiment, 3 replicates) was 11.8 nM and 2.46 nM. It also gave an Emax (hTA1 C88/178S; read-out: Span ± SEM (Emax normalized to β-PEA)) of 111 ± 5.22%.
